Results published in ChEMBL document CHEMBL3616395, “Discovery of 4-arylamido 3-methyl isoxazole derivatives as novel FMS kinase inhibitors” (Eur J Med Chem, 2015).
Values belong to the compound of their own block, whether it stands above or below them. The source made the active and inactive calls. The calls are words filed in the database; no cut-off is given here.

Legend:
[1] = Cytotoxicity against human HS27 cells after 24 hrs by MTT assay; type: cell-based
A375P = assay: Antiproliferative activity against human A375P cells after 24 hrs by MTT assay; type: functional, cell-based
U-937 = assay: Antiproliferative activity against human U937 cells after 24 hrs by MTT assay; type: functional; conditions: U-937, 24 h
[2] = biological target: Insulin-like growth factor 1 receptor (Homo sapiens) (UniProt P08069); assay: Inhibition of IGF1R (unknown origin) at 10 uM after 40 mins by scintillation counting analysis
[3] = biological target: Dual specificity mitogen-activated protein kinase kinase 1 (Homo sapiens) (UniProt Q02750); assay: Inhibition of MEK1 (unknown origin) at 10 uM after 40 mins by scintillation counting analysis
[4] = biological target: Fibroblast growth factor receptor 3 (Homo sapiens) (UniProt P22607); assay: Inhibition of FGFR3 (unknown origin) at 10 uM after 40 mins by scintillation counting analysis
[5] = biological target: Hepatocyte growth factor receptor (Homo sapiens) (UniProt P08581); assay: Inhibition of c-MET (unknown origin) at 10 uM after 40 mins by scintillation counting analysis
[6] = biological target: Serine/threonine-protein kinase B-raf (Homo sapiens, UniProt P15056, V600E); assay: Inhibition of BRAF V599E mutant (unknown origin) after 40 mins by scintillation counting analysis
[7] = biological target: Tyrosine-protein kinase JAK3 (Homo sapiens) (UniProt P52333); assay: Inhibition of Jak3 (unknown origin) at 10 uM after 40 mins by scintillation counting analysis
[8] = biological target: RAC-alpha serine/threonine-protein kinase (Homo sapiens) (UniProt P31749); assay: Inhibition of AKT1 (unknown origin) at 10 uM after 40 mins by scintillation counting analysis
[9] = biological target: T1, Tyrosine-protein kinase Lyn (Homo sapiens, UniProt P07948); assay: Inhibition of Lyn (unknown origin) after 40 mins by scintillation counting analysis
[10] = biological target: Proto-oncogene tyrosine-protein kinase ROS (Homo sapiens) (UniProt P08922); assay: Inhibition of ROS1 (unknown origin) at 10 uM after 40 mins by scintillation counting analysis
[11] = biological target: Glycogen synthase kinase-3 beta (Homo sapiens) (UniProt P49841); assay: Inhibition of GSK3b (unknown origin) at 10 uM after 40 mins by scintillation counting analysis
[12] = biological target: ALK tyrosine kinase receptor (Homo sapiens) (UniProt Q9UM73); assay: Inhibition of ALK (unknown origin) at 10 uM after 40 mins by scintillation counting analysis
[13] = biological target: Tyrosine-protein kinase SYK (Homo sapiens) (UniProt P43405); assay: Inhibition of SYK (unknown origin) at 10 uM after 40 mins by scintillation counting analysis
[14] = biological target: T2, RAF proto-oncogene serine/threonine-protein kinase (Homo sapiens, UniProt P04049); assay: Inhibition of C-Raf (unknown origin) after 40 mins by scintillation counting analysis
T2 sequence (P04049 whole entry): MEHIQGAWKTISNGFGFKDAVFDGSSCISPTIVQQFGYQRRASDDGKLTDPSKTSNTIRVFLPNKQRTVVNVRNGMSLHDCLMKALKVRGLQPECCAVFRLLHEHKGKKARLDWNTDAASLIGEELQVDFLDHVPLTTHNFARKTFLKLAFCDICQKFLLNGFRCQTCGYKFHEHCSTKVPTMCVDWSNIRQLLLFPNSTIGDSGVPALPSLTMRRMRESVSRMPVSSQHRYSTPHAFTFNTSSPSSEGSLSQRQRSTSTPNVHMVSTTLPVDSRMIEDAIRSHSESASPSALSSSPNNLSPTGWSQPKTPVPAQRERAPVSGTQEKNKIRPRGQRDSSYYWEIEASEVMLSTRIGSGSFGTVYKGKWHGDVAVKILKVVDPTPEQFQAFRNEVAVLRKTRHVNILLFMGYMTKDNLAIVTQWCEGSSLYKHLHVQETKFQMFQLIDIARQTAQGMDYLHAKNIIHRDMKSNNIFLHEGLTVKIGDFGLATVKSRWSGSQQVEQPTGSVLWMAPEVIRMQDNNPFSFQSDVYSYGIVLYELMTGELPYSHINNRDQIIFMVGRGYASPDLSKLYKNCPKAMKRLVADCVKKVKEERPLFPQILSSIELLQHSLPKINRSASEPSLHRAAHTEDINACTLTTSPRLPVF

[15] = biological target: T3, Serine/threonine-protein kinase B-raf (Homo sapiens, UniProt P15056); assay: Inhibition of BRAF (unknown origin) after 40 mins by scintillation counting analysis
T3 sequence (P15056 whole entry): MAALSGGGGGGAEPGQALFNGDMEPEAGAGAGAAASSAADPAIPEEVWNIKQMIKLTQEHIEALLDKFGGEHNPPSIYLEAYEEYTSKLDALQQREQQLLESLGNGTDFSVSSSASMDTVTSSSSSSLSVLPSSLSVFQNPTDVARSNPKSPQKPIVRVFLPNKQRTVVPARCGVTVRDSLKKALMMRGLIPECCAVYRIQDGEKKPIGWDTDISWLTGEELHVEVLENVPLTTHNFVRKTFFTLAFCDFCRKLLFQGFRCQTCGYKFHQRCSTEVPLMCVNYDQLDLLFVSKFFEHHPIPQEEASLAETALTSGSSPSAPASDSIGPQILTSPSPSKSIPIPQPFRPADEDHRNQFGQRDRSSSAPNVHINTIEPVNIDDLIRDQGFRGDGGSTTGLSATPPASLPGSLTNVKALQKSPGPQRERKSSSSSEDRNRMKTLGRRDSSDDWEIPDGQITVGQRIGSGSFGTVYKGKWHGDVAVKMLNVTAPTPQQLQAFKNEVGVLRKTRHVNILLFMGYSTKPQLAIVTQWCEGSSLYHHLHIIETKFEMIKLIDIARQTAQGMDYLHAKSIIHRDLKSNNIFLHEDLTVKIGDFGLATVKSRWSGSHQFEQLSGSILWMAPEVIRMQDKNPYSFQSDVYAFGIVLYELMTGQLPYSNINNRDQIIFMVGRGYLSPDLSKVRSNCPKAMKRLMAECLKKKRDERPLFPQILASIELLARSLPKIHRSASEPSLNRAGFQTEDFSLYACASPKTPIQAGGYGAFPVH

[16] = biological target: Receptor-type tyrosine-protein kinase FLT3 (Homo sapiens) (UniProt P36888); assay: Inhibition of FLT3 (unknown origin) at 10 uM after 40 mins by scintillation counting analysis
[17] = biological target: T4, Macrophage colony-stimulating factor 1 receptor (Homo sapiens, UniProt P07333); assay: Inhibition of FMS (unknown origin) at 10 uM after 40 mins by scintillation counting analysis
T4 sequence (P07333 whole entry): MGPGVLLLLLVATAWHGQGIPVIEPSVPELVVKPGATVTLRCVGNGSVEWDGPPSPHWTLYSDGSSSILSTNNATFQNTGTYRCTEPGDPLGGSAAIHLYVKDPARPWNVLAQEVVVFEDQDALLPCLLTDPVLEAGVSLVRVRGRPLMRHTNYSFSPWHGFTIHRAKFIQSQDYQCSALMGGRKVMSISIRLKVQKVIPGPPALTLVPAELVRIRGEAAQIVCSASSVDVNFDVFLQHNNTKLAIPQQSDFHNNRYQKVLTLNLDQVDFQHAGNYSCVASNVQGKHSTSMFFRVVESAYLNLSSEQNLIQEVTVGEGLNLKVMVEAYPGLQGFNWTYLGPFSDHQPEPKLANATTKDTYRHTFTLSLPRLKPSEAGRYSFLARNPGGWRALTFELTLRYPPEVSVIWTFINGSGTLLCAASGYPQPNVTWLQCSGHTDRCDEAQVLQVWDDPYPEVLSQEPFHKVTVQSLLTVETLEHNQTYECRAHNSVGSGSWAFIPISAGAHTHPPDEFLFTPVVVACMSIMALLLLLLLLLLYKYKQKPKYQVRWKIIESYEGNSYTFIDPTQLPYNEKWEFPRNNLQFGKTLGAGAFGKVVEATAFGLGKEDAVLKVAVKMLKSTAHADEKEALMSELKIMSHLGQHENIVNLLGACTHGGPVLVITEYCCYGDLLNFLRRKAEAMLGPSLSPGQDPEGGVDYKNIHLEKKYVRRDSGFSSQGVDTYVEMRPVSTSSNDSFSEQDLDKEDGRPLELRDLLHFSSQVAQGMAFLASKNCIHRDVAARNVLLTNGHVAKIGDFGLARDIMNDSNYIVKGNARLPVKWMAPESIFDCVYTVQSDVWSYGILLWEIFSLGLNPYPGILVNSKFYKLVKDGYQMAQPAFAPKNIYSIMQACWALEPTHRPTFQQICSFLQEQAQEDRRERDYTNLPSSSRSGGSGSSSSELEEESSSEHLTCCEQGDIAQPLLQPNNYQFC

[18] = biological target: T1, Tyrosine-protein kinase Lyn; assay: Inhibition of Lyn (unknown origin) at 10 uM after 40 mins by scintillation counting analysis
[19] = biological target: Serine/threonine-protein kinase mTOR (Homo sapiens, UniProt P42345); assay: Inhibition of mTOR (unknown origin) at 10 uM after 40 mins by scintillation counting analysis
[20] = biological target: Mast/stem cell growth factor receptor Kit (Homo sapiens) (UniProt P10721); assay: Inhibition of c-Kit (unknown origin) at 10 uM after 40 mins by scintillation counting analysis
[21] = biological target: Focal adhesion kinase 1 (Homo sapiens) (UniProt Q05397); assay: Inhibition of FAK (unknown origin) at 10 uM after 40 mins by scintillation counting analysis
[22] = biological target: T2, RAF proto-oncogene serine/threonine-protein kinase; assay: Inhibition of RAF1 (unknown origin) at 10 uM after 40 mins by scintillation counting analysis
[23] = biological target: Vascular endothelial growth factor receptor 2 (Homo sapiens) (UniProt P35968); assay: Inhibition of VEGFR2 (unknown origin) at 10 uM after 40 mins by scintillation counting analysis
[24] = tested on: Serine/threonine-protein kinase B-raf (Homo sapiens), P15056 [V600E]; assay: Inhibition of BRAF V599E mutant (unknown origin) at 10 uM after 40 mins by scintillation counting analysis
Serine/threonine-protein kinase B-raf (Homo sapiens), P15056 [V600E], sequence (P15056 whole entry V600E): as the sequence (P15056 whole entry) above, with V600E counted along it

[25] = biological target: cAMP-dependent protein kinase (PKA) (Homo sapiens) (UniProt P22694+P17612+P22612); assay: Inhibition of PKA (unknown origin) at 10 uM after 40 mins by scintillation counting analysis; type: protein assay
[26] = biological target: Aurora kinase A (Homo sapiens) (UniProt O14965); assay: Inhibition of Aurora A (unknown origin) at 10 uM after 40 mins by scintillation counting analysis
[27] = biological target: Fibroblast growth factor receptor 2 (Homo sapiens) (UniProt P21802); assay: Inhibition of FGFR2 (unknown origin) at 10 uM after 40 mins by scintillation counting analysis
Fibroblast growth factor receptor 2 (Homo sapiens), sequence (P21802 22-821 limits assumed): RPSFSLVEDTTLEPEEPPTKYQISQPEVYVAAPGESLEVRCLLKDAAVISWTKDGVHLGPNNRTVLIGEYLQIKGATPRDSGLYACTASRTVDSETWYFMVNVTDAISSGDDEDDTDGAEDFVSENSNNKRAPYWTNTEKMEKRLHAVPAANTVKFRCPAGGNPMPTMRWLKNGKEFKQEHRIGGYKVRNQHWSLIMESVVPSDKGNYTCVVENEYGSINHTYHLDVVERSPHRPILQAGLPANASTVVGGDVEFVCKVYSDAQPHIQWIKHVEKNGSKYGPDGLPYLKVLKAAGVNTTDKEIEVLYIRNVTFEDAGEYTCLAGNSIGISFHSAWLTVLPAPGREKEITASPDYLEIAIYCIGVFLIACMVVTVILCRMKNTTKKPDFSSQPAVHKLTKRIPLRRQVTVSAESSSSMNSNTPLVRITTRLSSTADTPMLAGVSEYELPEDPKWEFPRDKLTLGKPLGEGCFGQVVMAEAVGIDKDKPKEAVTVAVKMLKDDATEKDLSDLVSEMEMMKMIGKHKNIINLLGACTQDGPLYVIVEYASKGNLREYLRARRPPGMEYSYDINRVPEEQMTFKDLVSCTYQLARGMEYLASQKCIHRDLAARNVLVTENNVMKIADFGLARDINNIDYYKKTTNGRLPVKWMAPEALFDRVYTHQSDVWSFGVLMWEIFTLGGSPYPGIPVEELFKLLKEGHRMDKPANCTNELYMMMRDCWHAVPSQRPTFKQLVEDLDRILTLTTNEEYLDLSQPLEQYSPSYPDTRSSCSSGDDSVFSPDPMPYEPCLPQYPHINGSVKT

[28] = biological target: T3, Serine/threonine-protein kinase B-raf; assay: Inhibition of BRAF (unknown origin) at 10 uM after 40 mins by scintillation counting analysis
[29] = biological target: T4, Macrophage colony-stimulating factor 1 receptor; assay: Inhibition of FMS (unknown origin) after 40 mins by scintillation counting analysis
[30] = biological target: Macrophage-stimulating protein receptor (Homo sapiens) (UniProt Q04912); assay: Inhibition of RON (unknown origin) at 10 uM after 40 mins by scintillation counting analysis
[31] = biological target: Epidermal growth factor receptor (Homo sapiens) (UniProt P00533); assay: Inhibition of EGFR (unknown origin) at 10 uM after 40 mins by scintillation counting analysis
Epidermal growth factor receptor (Homo sapiens), sequence (P00533 whole entry): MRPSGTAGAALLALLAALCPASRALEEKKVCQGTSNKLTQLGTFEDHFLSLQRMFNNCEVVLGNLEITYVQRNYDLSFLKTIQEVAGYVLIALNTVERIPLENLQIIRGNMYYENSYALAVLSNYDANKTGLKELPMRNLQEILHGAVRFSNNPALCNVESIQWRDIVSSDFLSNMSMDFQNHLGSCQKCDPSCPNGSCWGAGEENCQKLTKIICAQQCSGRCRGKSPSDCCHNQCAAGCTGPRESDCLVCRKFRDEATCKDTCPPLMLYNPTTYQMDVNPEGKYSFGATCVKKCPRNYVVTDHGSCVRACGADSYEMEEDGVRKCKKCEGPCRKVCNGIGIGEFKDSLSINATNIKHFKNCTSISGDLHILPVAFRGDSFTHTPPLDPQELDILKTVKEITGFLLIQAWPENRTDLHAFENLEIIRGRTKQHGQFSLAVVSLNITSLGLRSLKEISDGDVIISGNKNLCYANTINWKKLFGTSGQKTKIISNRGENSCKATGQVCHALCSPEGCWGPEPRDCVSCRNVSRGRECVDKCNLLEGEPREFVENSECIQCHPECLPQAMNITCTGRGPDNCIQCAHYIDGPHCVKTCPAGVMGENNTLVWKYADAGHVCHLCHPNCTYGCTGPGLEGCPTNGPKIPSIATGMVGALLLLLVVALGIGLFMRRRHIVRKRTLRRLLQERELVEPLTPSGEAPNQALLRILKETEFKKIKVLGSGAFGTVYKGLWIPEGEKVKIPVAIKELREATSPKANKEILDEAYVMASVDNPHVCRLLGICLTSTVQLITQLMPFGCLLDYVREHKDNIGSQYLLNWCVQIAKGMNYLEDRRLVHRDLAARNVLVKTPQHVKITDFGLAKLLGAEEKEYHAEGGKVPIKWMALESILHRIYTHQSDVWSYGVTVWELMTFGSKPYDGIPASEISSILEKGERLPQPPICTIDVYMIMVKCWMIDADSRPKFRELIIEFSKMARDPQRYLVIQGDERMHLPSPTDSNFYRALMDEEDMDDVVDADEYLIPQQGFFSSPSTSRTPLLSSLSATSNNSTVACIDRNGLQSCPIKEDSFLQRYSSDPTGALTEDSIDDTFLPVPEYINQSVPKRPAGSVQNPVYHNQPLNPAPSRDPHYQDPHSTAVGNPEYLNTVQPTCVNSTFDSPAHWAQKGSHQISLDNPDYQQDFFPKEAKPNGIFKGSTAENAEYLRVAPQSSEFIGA

[32] = biological target: Cyclin-dependent kinase 1/cyclin B (Homo sapiens) (UniProt P06493+P14635+Q8WWL7+O95067); assay: Inhibition of CDK1/cyclin B (unknown origin) at 10 uM after 40 mins by scintillation counting analysis; type: protein-complex assay
[33] = biological target: Mitogen-activated protein kinase 3 (Homo sapiens) (UniProt P27361); assay: Inhibition of ErK1 (unknown origin) at 10 uM after 40 mins by scintillation counting analysis
Mitogen-activated protein kinase 3 (Homo sapiens), sequence (P27361 whole entry): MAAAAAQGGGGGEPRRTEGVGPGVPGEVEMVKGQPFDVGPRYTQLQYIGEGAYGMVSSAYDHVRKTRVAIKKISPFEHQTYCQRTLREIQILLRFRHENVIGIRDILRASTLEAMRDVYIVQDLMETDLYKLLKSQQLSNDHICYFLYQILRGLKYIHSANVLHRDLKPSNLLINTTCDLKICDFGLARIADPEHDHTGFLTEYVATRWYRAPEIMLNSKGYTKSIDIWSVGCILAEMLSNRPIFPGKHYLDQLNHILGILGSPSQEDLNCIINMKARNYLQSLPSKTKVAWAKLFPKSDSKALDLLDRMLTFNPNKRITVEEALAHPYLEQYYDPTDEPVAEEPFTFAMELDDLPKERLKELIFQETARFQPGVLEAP

[34] = biological target: Cyclin-dependent kinase 2/cyclin E (Homo sapiens) (UniProt P24864+P24941+O96020); assay: Inhibition of CDK2/cyclin E (unknown origin) at 10 uM after 40 mins by scintillation counting analysis; type: protein-complex assay
[35] = biological target: Serine/threonine-protein kinase PLK1 (Homo sapiens) (UniProt P53350); assay: Inhibition of PLK1 (unknown origin) at 10 uM after 40 mins by scintillation counting analysis
[36] = biological target: Mitogen-activated protein kinase 10 (Homo sapiens) (UniProt P53779); assay: Inhibition of JNK3 (unknown origin) at 10 uM after 40 mins by scintillation counting analysis

GI50 (U-937): > 30 µM
SMILES: Cc1ccc(NC(=O)Cc2c[nH]c3ccccc23)cc1NC(=O)c1cnoc1C
GI50 at 24 h [1]: > 30 µM
Activity (A375P): inactive

GI50 (U-937): > 30 µM
SMILES: Cc1ccc(NC(=O)C2(C)CCc3c(C)c(O)c(C)c(C)c3O2)cc1NC(=O)c1cnoc1C (stereo unspecified)
GI50 at 24 h [1]: > 30 µM
Activity (A375P): inactive

GI50 (U-937): > 30 µM
SMILES: Cc1ccc(NC(=O)Nc2cccc(C(F)(F)F)c2)cc1NC(=O)c1cnoc1C
GI50 at 24 h [1]: > 30 µM
Activity (A375P): inactive

GI50 (U-937): > 30 µM
SMILES: Cc1ccc(NC(=O)Nc2ccc(Cl)c(C(F)(F)F)c2)cc1NC(=O)c1cnoc1C
GI50 at 24 h [1]: > 30 µM
Activity (A375P): inactive

GI50 (U-937): > 30 µM
SMILES: Cc1ccc(NC(=O)Nc2ccccc2F)cc1NC(=O)c1cnoc1C
GI50 at 24 h [1]: > 30 µM
Activity (A375P): inactive

GI50 (U-937): > 30 µM
SMILES: Cc1ccc(NC(=O)c2ccccc2Sc2ccccc2C#N)cc1NC(=O)c1cnoc1C
GI50 at 24 h [1]: > 30 µM
Activity (A375P): inactive

GI50 (U-937): > 30 µM
SMILES: Cc1cc(NC(=O)Nc2ccc(Cl)cc2)ccc1NC(=O)c1cnoc1C
GI50 at 24 h [1]: > 30 µM
Activity (A375P): inactive

GI50 (U-937): > 30 µM
SMILES: CCCS(=O)(=O)Nc1ccc(C)c(NC(=O)c2cnoc2C)c1
GI50 at 24 h [1]: > 30 µM
Activity (A375P): inactive

GI50 (U-937): > 30 µM
SMILES: Cc1cc(NC(=O)Nc2cccc(Cl)c2)ccc1NC(=O)c1cnoc1C
GI50 at 24 h [1]: > 30 µM
Activity (A375P): inactive

GI50 (U-937): 1.89 µM
SMILES: Cc1ccc(NC(=O)Nc2ccc(Cl)c(Cl)c2)cc1NC(=O)c1cnoc1C
GI50 at 24 h [1]: > 30 µM
Activity (A375P): inactive

GI50 (U-937): 16.5 µM
SMILES: Cc1cc(NC(=O)Nc2ccc(Cl)c(C(F)(F)F)c2)ccc1NC(=O)c1cnoc1C
GI50 at 24 h [1]: > 30 µM
Activity (A375P): inactive

GI50 (U-937): > 30 µM
SMILES: Cc1ccc(NC(=O)C(c2ccc(Cl)cc2)c2ccc(Cl)cc2)cc1NC(=O)c1cnoc1C
GI50 at 24 h [1]: > 30 µM
Activity (A375P): inactive

GI50 (U-937): 0.049 µM
SMILES: Cc1cn(-c2cc(C(=O)Nc3ccc(C)c(NC(=O)c4cnoc4C)c3)cc(C(F)(F)F)c2)cn1
GI50 at 24 h [1]: > 30 µM
Activity (A375P): inactive

GI50 (U-937): > 30 µM
SMILES: Cc1cc(NC(=O)Nc2cc(Cl)cc(Cl)c2)ccc1NC(=O)c1cnoc1C
GI50 at 24 h [1]: > 30 µM
Activity (A375P): inactive

GI50 (U-937): 0.139 µM
SMILES: Cc1ccc(NC(=O)c2cnn(-c3ccccc3)c2C(F)(F)F)cc1NC(=O)c1cnoc1C
GI50 at 24 h [1]: > 30 µM
Activity (A375P): inactive

inhibition [2]: 0%
inhibition [3]: 0%
inhibition [4]: 0%
inhibition [5]: 0%
IC50 [6]: 0.668 µM
inhibition [7]: 0%
inhibition [8]: 5.73%
IC50 [9]: 0.0659 µM
inhibition [10]: 0%
inhibition [11]: 0%
inhibition [12]: 0%
inhibition [13]: 3.81%
IC50 [14]: 0.0448 µM
IC50 [15]: 5.96 µM
inhibition [16]: 2.12%
inhibition [17]: 98.7%
inhibition [18]: 97.8%
inhibition [19]: 1.14%
inhibition [20]: 7.5%
inhibition [21]: 0%
inhibition [22]: 95.9%
inhibition [23]: 8.27%
inhibition [24]: 87.9%
inhibition [25]: 0%
inhibition [26]: 0%
inhibition [27]: 3.6%
inhibition [28]: 61.2%
GI50 (U-937): 0.016 µM
IC50 [29]: 0.00995 µM
inhibition [30]: 0%
inhibition [31]: 4.68%
inhibition [32]: 0%
inhibition [33]: 7.54%
inhibition [34]: 1.85%
inhibition [35]: 0%
inhibition [36]: 15.3%
SMILES: Cc1ccc(NC(=O)c2cc(N3CCN(C)CC3)cc(C(F)(F)F)c2)cc1NC(=O)c1cnoc1C
GI50 at 24 h [1]: > 30 µM
Activity (A375P): inactive

GI50 (U-937): > 30 µM
SMILES: Cc1cc(NC(=O)Nc2ccc(Cl)c(Cl)c2)ccc1NC(=O)c1cnoc1C
GI50 at 24 h [1]: > 30 µM
Activity (A375P): inactive
